This note sets out measurements from ChEMBL document CHEMBL1201862, “PubChem BioAssay data set” (2004).

Test systems include CAKI-1; HCC 2998; HCT-116; HOP-62; MOLT-4; NCI-H226; NCI-H460; NCI-H522; NCI/ADR-RES; RPMI-8226; RXF 393; SK-MEL-2; SK-MEL-5; SR; SW-620; T47D; TK-10; U-251; HL-60.
Holding throughout (assay): NCI tumour cell line growth inhibition, 48 h

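1) Cells in 96-well plates. 2) Compound, 48 h, 5 concentrations. 3) Linear interpolation between surrounding doses. 4) Unreached endpoint = highest concentration. The concentration for 50% growth inhibition is given as GI50.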 Calls of active or inactive are those of the source. Cut-off read from the data, not from the text of the source: active = GI50 up to about 1.1 µM and inactive = higher.

On to `CCOC(=O)c1c(SCCN2CCCC2)n(-c2ccccc2)c(=S)n(-c2ccccc2)c1=O`, for which the GI50 in the assay on CAKI-1 was 2.29 µM (inactive); with HCC 2998 it was 1.87 µM (inactive); in the assay on HCT-116 it was 4.27 µM (inactive); in the assay with HOP-62, 18.5 µM (inactive); with MOLT-4, 1.65 µM (inactive); with NCI-H226, 16.8 µM (inactive). In addition, the GI50 in the assay with NCI-H460 is 5.81 µM (inactive); with NCI-H522, 1.77 µM (inactive); with NCI/ADR-RES it was 25.8 µM (inactive); in the assay on RPMI-8226 it was 2.18 µM (inactive); in the assay with RXF 393, 1.74 µM (inactive); with SK-MEL-2, 11.4 µM (inactive). The GI50 was 3.07 µM (inactive) in the assay on SK-MEL-5; 0.457 µM (active) in the assay with SR; 2.6 µM (inactive) with SW-620; 2.72 µM (inactive) in the assay on T47D; 1.67 µM (inactive) in the assay on TK-10; 6.14 µM (inactive) in the assay with U-251.
As to `c1ccc(Nc2nnc(Cn3ccc4ccccc43)s2)cc1`, the GI50 is 22.4 µM (inactive) in the assay with CAKI-1; > 100 µM (inactive) in the assay with HCC 2998; 42.7 µM (inactive) in the assay with HCT-116; 29.9 µM (inactive) in the assay with HOP-62; 23.1 µM (inactive) in the assay on MOLT-4; 58.3 µM (inactive) with NCI-H226. Besides, the GI50 is 47 µM (inactive) with NCI-H460; 51.8 µM (inactive) in the assay with NCI-H522; 34.6 µM (inactive) in the assay on NCI/ADR-RES; 48.5 µM (inactive) in the assay with RPMI-8226; 73.5 µM (inactive) in the assay on RXF 393; > 100 µM (inactive) in the assay with SK-MEL-2. The GI50 in the assay on SK-MEL-5 is 57.4 µM (inactive); in the assay with SR, 12.8 µM (inactive); in the assay with SW-620, 87.3 µM (inactive); in the assay on T47D, 27.7 µM (inactive); with TK-10, 76.6 µM (inactive); with U-251, 42.4 µM (inactive).
As for `Nc1ccc2nc(N)n[n+]([O-])c2c1`, the GI50 with CAKI-1, in the assay with HCT-116, in the assay on HL-60, with HOP-62, in the assay on MOLT-4 and in the assay on NCI-H226 was > 100 µM (inactive) throughout. The GI50 with NCI-H460, with NCI-H522, in the assay with NCI/ADR-RES, with RPMI-8226, in the assay on SK-MEL-2 and with SK-MEL-5 was > 100 µM (inactive) in each case. The GI50 in the assay on SR, with SW-620, in the assay on T47D, in the assay on TK-10 and with U-251 was > 100 µM (inactive) each time.
For the compound `O=C(O)Cn1ccc(=O)c2c([N+](=O)[O-])cccc21`, the GI50 with CAKI-1, in the assay with HCC 2998, with HCT-116, in the assay on HL-60, with HOP-62 and with MOLT-4 was > 100 µM (inactive) throughout. The GI50 in the assay on NCI-H226, in the assay with NCI-H460, in the assay on NCI-H522, with NCI/ADR-RES, in the assay on SK-MEL-2 and in the assay on SK-MEL-5 was > 100 µM (inactive) throughout. The GI50 with SR, with SW-620, with T47D, with TK-10 and in the assay with U-251 was > 100 µM (inactive) throughout.
